Measured values as given in EP3597653A1, “CYCLIC INHIBITORS OF HEPATITIS B VIRUS” (IRBM S.P.A., priority 2018, dated 2020).

The compounds below were run on HBV (assay: HBV inhibition assay in HepAD38 cells (extracellular HBV DNA by direct qPCR)). Conditions: Hepatitis B virus, compound at 0.1 µM, 96 hours, relative to non-treated reference, read-out: Anti HBV Activity (conc µM).
Format: cell-based
In short: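 HepAD38 cells (HepG2, tetracycline-off HBV) induced in tetracycline-free medium, treated 96 h at 37 °C with compound, 0.5% DMSO. Extracellular HBV DNA quantified by direct SYBR qPCR of lysed supernatant, as % of untreated; EC50 from 8-point 1:2 curves; cytotoxicity by CellTiter-Blue.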
`Cc1cc2c(cc1C(=O)Nc1cc(F)c(F)c(F)c1)S(=O)(=O)N([C@H]1CC[C@H](O)CC1)C(=O)N2` [Example E122, trans-2-(4-hydroxycyclohexyl)-6-methyl-3-oxo-N-(3,4,5-trifluorophenyl)-3,4-dihydro-2H-benzo[e][1,2,4]thiadiazine-7-carboxamide 1,1-dioxide] was tested, and the inhibition at 0.1 µM was > 50%. `O=C(Nc1ccc(F)c(Cl)c1)c1ccc2c(c1)S(=O)(=O)N([C@H]1CC[C@H](O)CC1)C(=O)N2` [Example E123, N-(3-chloro-4-fluorophenyl)-2-((1r,4r)-4-hydroxycyclohexyl)-3-oxo-3,4-dihydro-2H-benzo[e][1,2,4]thiadiazine-7-carboxamide 1,1-dioxide] was tested, and the inhibition at 0.1 µM was > 50%.

Same assay, conditions: Hepatitis B virus, compound at 0.5 µM, 96 hours, relative to non-treated reference, read-out: Anti HBV Activity (conc µM)
For `O=C(Nc1cc(F)c(F)c(F)c1)c1cnc2c(c1)S(=O)(=O)N([C@H]1CC[C@H](O)CC1)C(=O)N2` [Example E121, trans-2-(4-hydroxycyclohexyl)-3-oxo-N-(3,4,5-trifluorophenyl)-3,4-dihydro-2H-pyrido[2,3-e][1,2,4]thiadiazine-7-carboxamide 1,1-dioxide], the inhibition at 0.5 µM was < 50%. In the case of `O=C(Nc1cc(F)c(F)c(F)c1)c1ccc2c(c1)S(=O)(=O)N([C@H]1C[C@@H](O)C1)C(=O)N2` [Example E124, Cis-2-(3-hydroxycyclobutyl)-3-oxo-N-(3,4,5-trifluorophenyl)-3,4-dihydro-2H-benzo[e][1,2,4]thiadiazine-7-carboxamide 1,1-dioxide], the inhibition at 0.5 µM is reported as > 50%. In the case of `O=C(Nc1cc(F)c(F)c(F)c1)c1ccc2c(c1)S(=O)(=O)N([C@H]1C[C@H](O)C1)C(=O)N2` [Example E125, Trans-2(3-hydroxycyclobutyl)-3-oxo-N-(3,4,5-trifluorophenyl)-3,4-dihydro-2H-benzo[e][1,2,4]thiadiazine-7-carboxamide 1,1-dioxide], the inhibition at 0.5 µM is reported as > 50%. For `O=C(Nc1cc(F)c(F)c(F)c1)c1ccc2c(c1)S(=O)(=O)N([C@H]1C[C@@H](O)C1)CN2` [Example E126, Cis-2-(3-hydroxycyclobutyl)-N-(3,4,5-trifluorophenyl)-3,4-dihydro-2H-benzo[e][1,2,4]thiadiazine-7-carboxamide 1,1-dioxide], the inhibition at 0.5 µM was < 50%. In the case of `O=C(Nc1cc(F)c(F)c(F)c1)c1ccc2c(c1)S(=O)(=O)N([C@H]1C[C@H](O)C1)CN2` [Example E127, Trans-2-(3-hydroxycyclobutyl)-N-(3,4,5-trifluorophenyl)-3,4-dihydro-2H-benzo[e][1,2,4]thiadiazine-7-carboxamide 1,1-dioxide], the inhibition at 0.5 µM is reported as < 50%. With `O=C(Nc1cc(F)c(F)c(F)c1)c1ccc2c(c1)S(=O)(=O)N(c1cccnc1)C(=O)N2` [Example E128, 3-oxo-2-(pyridin-3-yl)-N-(3,4,5-trifluorophenyl)-3,4-dihydro-2H-benzo[e][1,2,4]thiadiazine-7-carboxamide 1,1-dioxide] the inhibition at 0.5 µM was < 50%. In the case of `O=C(Nc1ccc(F)c(C(F)F)c1)c1ccc2c(c1)S(=O)(=O)N([C@H]1CC[C@H](O)CC1)C(=O)N2` [Example E131, N-(3-(difluoromethyl)-4-fluorophenyl)-2-((1r,4r)-4-hydroxycyclohexyl)-3-oxo-3,4-dihydro-2H-benzo[e][1,2,4]thiadiazine-7-carboxamide 1,1-dioxide], the inhibition at 0.5 µM is reported as > 50%. For `Cc1cc(NC(=O)c2ccc3c(c2)S(=O)(=O)N([C@H]2CC[C@H](O)CC2)C(=O)N3)ccc1F` [Example E132, N-(4-fluoro-3-methylphenyl)-2-((1r,4r)-4-hydroxycyclohexyl)-3-oxo-3,4-dihydro-2H-benzo[e][1,2,4]thiadiazine-7-carboxamide 1,1-dioxide], the inhibition at 0.5 µM was > 50%. With `O=C(Nc1cc(F)c(F)c(F)c1)c1ccc2c(c1)S(=O)(=O)N(C1CC=C(CO)CC1)C(=O)N2` (stereo not shown) [Example E134, 2-(4-(hydroxymethyl)cyclohex-3-en-1-yl)-3-oxo-N-(3,4,5-trifluorophenyl)-3,4-dihydro-2H-benzo[e][1,2,4]thiadiazine-7-carboxamide 1,1-dioxide] the inhibition at 0.5 µM was > 50%.

Same assay, conditions: Hepatitis B virus, compound at 1 µM, 96 hours, relative to non-treated reference, read-out: Anti HBV Activity (conc µM)
`CC(C)(C)OC(=O)N1CCN2C(COc3ccc(C(=O)Nc4cc(F)c(F)c(F)c4)cc3S2(=O)=O)C1` (stereo not shown) [Example E114, tert-butyl 8-((3,4,5-trifluorophenyl)carbamoyl)-3,4,12,12a-tetrahydrobenzo[b]pyrazino[1,2-e][1,4,5]oxathiazepine-2(1H)-carboxylate 6,6-dioxide] was tested, and the inhibition at 1 µM was < 50%. In the case of `O=C(Nc1cc(F)c(F)c(F)c1)c1ccc2c(c1)S(=O)(=O)N1CCNCC1CO2` (stereo not shown) [Example E115, N-(3,4,5-trifluorophenyl)-1,2,3,4,12,12a-hexahydrobenzo[b]pyrazino[1,2-e][1,4,5]oxathiazepine-8-carboxamide 6,6-dioxide], the inhibition at 1 µM is reported as < 50%. In the case of `CC(=O)N1CCN2C(COc3ccc(C(=O)Nc4cc(F)c(F)c(F)c4)cc3S2(=O)=O)C1` (stereo not shown) [Example E116, 2-acetyl-N-(3,4,5-trifluorophenyl)-1,2,3,4,12,12a-hexahydrobenzo[b]pyrazino[1,2-e][1,4,5]oxathiazepine-8-carboxamide 6,6-dioxide], the inhibition at 1 µM is reported as < 50%. `O=C(Nc1cc(F)c(F)c(F)c1)c1ccc2c(c1)S(=O)(=O)N1CC(C1)O2` [Example E117, N-(3,4,5-trifluorophenyl)-3,4-dihydro-2,4-methanobenzo[b][1,4,5]oxathiazepine-8-carboxamide 1,1-dioxide] was tested, and the inhibition at 1 µM was < 50%. With `O=C(Nc1cc(F)c(F)c(F)c1)c1ccc2c(c1)S(=O)(=O)N1CCC(C1)O2` (stereo not shown) [Example E118, N-(3,4,5-trifluorophenyl)-4,5-dihydro-3H-2,5-methanobenzo[b][1,4,5]oxathiazocine-9-carboxamide 1,1-dioxide] the inhibition at 1 µM was < 50%. With `O=C(Nc1ccc(F)c(F)c1)c1ccc2c(c1)S(=O)(=O)NC(CO)N2` (stereo not shown) [Example E119, N-(3,4-difluorophenyl)-3-(hydroxymethyl)-3,4-dihydro-2H-benzo[e][1,2,4]thiadiazine-7-carboxamide 1,1-dioxide] the inhibition at 1 µM was > 50%. With `CC1(C)Nc2ccc(C(=O)Nc3ccc(F)c(F)c3)cc2S(=O)(=O)N1` [Example E120, N-(3,4-difluorophenyl)-3,3-dimethyl-3,4-dihydro-2H-benzo[e][1,2,4]thiadiazine-7-carboxamide 1,1-dioxide] the inhibition at 1 µM was > 50%. With `O=C(Nc1cc(F)c(F)c(F)c1)c1ccc2c(c1)S(=O)(=O)NC(CO)CO2` (stereo not shown) [Example E135, 3-(hydroxymethyl)-N-(3,4,5-trifluorophenyl)-3,4-dihydro-2H-benzo[b][1,4,5]oxathiazepine-8-carboxamide 1,1-dioxide] the inhibition at 1 µM was < 50%. In the case of `O=C(Nc1cc(F)c(F)c(F)c1)c1ccc2c(c1)S(=O)(=O)N[C@@H]1CCC[C@@H]1N2` [Example E136, (3aR,10aS)-N-(3,4,5-trifluorophenyl)-2,3,3a,4,10,10a-hexahydro-1H-benzo[f]cyclopenta[c][1,2,5]thiadiazepine-7-carboxamide 5,5-dioxide], the inhibition at 1 µM is reported as < 50%. In the case of `O=C(Nc1cc(F)c(F)c(F)c1)c1ccc2c(c1)S(=O)(=O)N[C@H]1CCC[C@H]1N2` [Example E137, (3aS,10aR)-N-(3,4,5-trifluorophenyl)-2,3,3a,4,10,10a-hexahydro-1H-benzo[f]cyclopenta[c][1,2,5]thiadiazepine-7-carboxamide 5,5-dioxide], the inhibition at 1 µM is reported as < 50%. With `O=C(Nc1cc(F)c(F)c(F)c1)c1ccc2c(c1)S(=O)(=O)Nc1ncnn1-2` [Example E138, N-(3,4,5-trifluorophenyl)-4H-benzo[e][1,2,4]triazolo[5,1-c][1,2,4]thiadiazine-7-carboxamide 5,5-dioxide] the inhibition at 1 µM was < 50%. With `O=C(Nc1cc(F)c(F)c(F)c1)c1ccc2c(c1)S(=O)(=O)NCC(CO)O2` (stereo not shown) [Example E139, 4-(hydroxymethyl)-N-(3,4,5-trifluorophenyl)-3,4-dihydro-2H-benzo[b][1,4,5]oxathiazepine-8-carboxamide 1,1-dioxide] the inhibition at 1 µM was < 50%. For `O=C(Nc1cc(F)c(F)c(F)c1)c1ccc2c(c1)S(=O)(=O)NC1(COC1)CO2` [Example E140, N-(3,4,5-trifluorophenyl)-2H,4H-spiro[benzo[b][1,4,5]oxathiazepine-3,3'-oxetane]-8-carboxamide 1,1-dioxide], the inhibition at 1 µM was < 50%.

Same assay, conditions: compound at 1 µM, 96 hours, relative to non-treated reference
In the case of `CN1CCC(N2C(=O)Nc3ccc(C(=O)Nc4cc(F)c(F)c(F)c4)cc3S2(=O)=O)CC1` [Example E133, 2-(1-methylpiperidin-4-yl)-3-oxo-N-(3,4,5-trifluorophenyl)-3,4-dihydro-2H-benzo[e][1,2,4]thiadiazine-7-carboxamide 1,1-dioxide], the “Anti HBV Activity (conc µM)” value is reported as “A (1) (HBV inhibition greater than 50% at the concentration indicated in the table)”.
